Test results taken from ChEMBL document CHEMBL1255475, “Mutant prevention concentrations of four carbapenems against gram-negative rods” (2010).

Assays:
Klebsiella pneumoniae [1] = test: Ratio of mutant prevention concentration to minimum Inhibitory concentration for beta-lactamase-negative Klebsiella pneumoniae E358; type: functional
Escherichia coli [2] = test: Ratio of mutant prevention concentration to minimum Inhibitory concentration for beta-lactamase-positive ESBL-negative Escherichia coli E437; type: functional
Klebsiella pneumoniae [3] = test: Ratio of mutant prevention concentration to minimum Inhibitory concentration for beta-lactamase-positive ESBL-negative Klebsiella pneumoniae E509; type: functional
Escherichia coli [4] = test: Ratio of mutant prevention concentration to minimum Inhibitory concentration for beta-lactamase-positive ESBL-negative Escherichia coli E412; type: functional
Escherichia coli [5] = test: Ratio of mutant prevention concentration to minimum Inhibitory concentration for beta-lactamase-positive ESBL-negative Escherichia coli E483; type: functional
Klebsiella pneumoniae [6] = test: Ratio of mutant prevention concentration to minimum Inhibitory concentration for beta-lactamase-positive ESBL-positive Klebsiella pneumoniae E478; type: functional
Escherichia coli [7] = test: Antibacterial activity against beta-lactamase-negative Escherichia coli E425 incubated up to 7 days by agar dilution method; type: functional; details: E425, 168 h
Escherichia coli [8] = test: Ratio of mutant prevention concentration to minimum Inhibitory concentration for beta-lactamase-positive ESBL-positive Escherichia coli E450; type: functional
Escherichia coli [9] = test: Ratio of mutant prevention concentration to minimum Inhibitory concentration for beta-lactamase-negative Escherichia coli E408; type: functional
Klebsiella pneumoniae [10] = test: Ratio of mutant prevention concentration to minimum Inhibitory concentration for beta-lactamase-positive ESBL-positive Klebsiella pneumoniae E453; type: functional
Klebsiella pneumoniae [11] = test: Antibacterial activity against beta-lactamase-positive ESBL-negative Klebsiella pneumoniae E509 incubated up to 7 days by agar dilution method; type: functional; details: E509, 168 h
Escherichia coli [12] = test: Ratio of mutant prevention concentration to minimum Inhibitory concentration for beta-lactamase-positive ESBL-positive Escherichia coli E452; type: functional
Klebsiella pneumoniae [13] = test: Ratio of mutant prevention concentration to minimum Inhibitory concentration for beta-lactamase-positive ESBL-negative Klebsiella pneumoniae E511; type: functional
Klebsiella pneumoniae [14] = test: Ratio of mutant prevention concentration to minimum Inhibitory concentration for beta-lactamase-negative Klebsiella pneumoniae E359; type: functional
Klebsiella pneumoniae [15] = test: Ratio of mutant prevention concentration to minimum Inhibitory concentration for beta-lactamase-positive ESBL-negative Klebsiella pneumoniae E474; type: functional
Escherichia coli [16] = test: Ratio of mutant prevention concentration to minimum Inhibitory concentration for beta-lactamase-positive ESBL-positive Escherichia coli E460; type: functional
Escherichia coli [17] = test: Ratio of mutant prevention concentration to minimum Inhibitory concentration for beta-lactamase-negative Escherichia coli E345; type: functional
Escherichia coli [18] = test: Antibacterial activity against beta-lactamase-negative Escherichia coli E346 incubated up to 7 days by agar dilution method; type: functional; details: E346, 168 h
Klebsiella pneumoniae [19] = test: Ratio of mutant prevention concentration to minimum Inhibitory concentration for beta-lactamase-negative Klebsiella pneumoniae E357; type: functional
Klebsiella pneumoniae [20] = test: Ratio of mutant prevention concentration to minimum Inhibitory concentration for beta-lactamase-positive ESBL-negative Klebsiella pneumoniae E477; type: functional
Escherichia coli [21] = test: Ratio of mutant prevention concentration to minimum Inhibitory concentration for beta-lactamase-negative Escherichia coli E350; type: functional
Klebsiella pneumoniae [22] = test: Ratio of mutant prevention concentration to minimum Inhibitory concentration for beta-lactamase-positive ESBL-positive Klebsiella pneumoniae E457; type: functional
Klebsiella pneumoniae [23] = test: Ratio of mutant prevention concentration to minimum Inhibitory concentration for beta-lactamase-positive ESBL-negative Klebsiella pneumoniae E479; type: functional
Pseudomonas aeruginosa [24] = test: Antibacterial activity against Pseudomonas aeruginosa P335 incubated up to 7 days by agar dilution method; type: functional; details: P335, 168 h
Acinetobacter baumannii [25] = test: Antibacterial activity against Acinetobacter baumannii A896 incubated for 24 h by agar dilution method; details: A896, 24 h
Pseudomonas aeruginosa [26] = test: Antibacterial activity against Pseudomonas aeruginosa P328 incubated up to 7 days by agar dilution method; type: functional; details: P328, 168 h
Pseudomonas aeruginosa [27] = test: Antibacterial activity against Pseudomonas aeruginosa P334 incubated up to 7 days by agar dilution method; type: functional; details: P334, 168 h
Acinetobacter baumannii [28] = test: Antibacterial activity against Acinetobacter baumannii A892 incubated for 24 h by agar dilution method; details: A892, 24 h
Pseudomonas aeruginosa [29] = test: Antibacterial activity against Pseudomonas aeruginosa P352 incubated up to 7 days by agar dilution method; type: functional; details: P352, 168 h
Acinetobacter baumannii [30] = test: Antibacterial activity against Acinetobacter baumannii A910 incubated for 24 h by agar dilution method; details: A910, 24 h
Pseudomonas aeruginosa [31] = test: Antibacterial activity against Pseudomonas aeruginosa P369 incubated up to 7 days by agar dilution method; type: functional; details: P369, 168 h
Pseudomonas aeruginosa [32] = test: Antibacterial activity against Pseudomonas aeruginosa P358 incubated up to 7 days by agar dilution method; type: functional; details: P358, 168 h
Acinetobacter baumannii [33] = test: Antibacterial activity against Acinetobacter baumannii A929 incubated up to 7 days by agar dilution method; type: functional; details: A929, 168 h
Pseudomonas aeruginosa [34] = test: Antibacterial activity against Pseudomonas aeruginosa P341 incubated up to 7 days by agar dilution method; type: functional; details: P341, 168 h
Acinetobacter baumannii [35] = test: Antibacterial activity against Acinetobacter baumannii A867 assessed as mutant prevention concentration after overnight incubation; type: functional
Acinetobacter baumannii [36] = test: Antibacterial activity against Acinetobacter baumannii A849 incubated for 24 h by agar dilution method; details: A849, 24 h
Acinetobacter baumannii [37] = test: Antibacterial activity against Acinetobacter baumannii A908 incubated for 24 h by agar dilution method; details: A908, 24 h
Acinetobacter baumannii [38] = test: Antibacterial activity against Acinetobacter baumannii A903 incubated up to 7 days by agar dilution method; type: functional; details: A903, 168 h
Acinetobacter baumannii [39] = test: Antibacterial activity against Acinetobacter baumannii A867 incubated for 24 h by agar dilution method; details: A867, 24 h
Acinetobacter baumannii [40] = test: Antibacterial activity against Acinetobacter baumannii A884 incubated for 24 h by agar dilution method; details: A884, 24 h
Acinetobacter baumannii [41] = test: Antibacterial activity against Acinetobacter baumannii A885 incubated up to 7 days by agar dilution method; type: functional; details: A885, 168 h
Acinetobacter baumannii [42] = test: Antibacterial activity against Acinetobacter baumannii A864 incubated for 24 hrs by agar dilution method; details: A864, 24 h
Pseudomonas aeruginosa [43] = test: Antibacterial activity against Pseudomonas aeruginosa P337 incubated up to 7 days by agar dilution method; type: functional; details: P337, 168 h
Pseudomonas aeruginosa [44] = test: Antibacterial activity against Pseudomonas aeruginosa P322 incubated up to 7 days by agar dilution method; type: functional; details: P322, 168 h
Pseudomonas aeruginosa [45] = test: Antibacterial activity against Pseudomonas aeruginosa P365 incubated up to 7 days by agar dilution method; type: functional; details: P365, 168 h
Acinetobacter baumannii [46] = test: Antibacterial activity against Acinetobacter baumannii A865 assessed as mutant prevention concentration after overnight incubation; type: functional
Acinetobacter baumannii [47] = test: Antibacterial activity against Acinetobacter baumannii A894 incubated up to 7 days by agar dilution method; type: functional; details: A894, 168 h
Pseudomonas aeruginosa [48] = test: Antibacterial activity against Pseudomonas aeruginosa P363 incubated up to 7 days by agar dilution method; type: functional; details: P363, 168 h

C[C@@H](O)[C@H]1C(=O)N2C(C(=O)O)=C(S[C@@H]3CN[C@H](C(=O)Nc4cccc(C(=O)O)c4)C3)[C@H](C)[C@H]12
8: Ratio (Escherichia coli [12]) | Ratio (Klebsiella pneumoniae [13]) | Ratio (Klebsiella pneumoniae [15]) | Ratio (Klebsiella pneumoniae [23])
0.008 µg/mL: MIC (Escherichia coli [7]) | MIC (Escherichia coli [18])
16: Ratio (Escherichia coli [4]) | Ratio (Escherichia coli [5])
>16: Ratio (Escherichia coli [8])
2: Ratio (Escherichia coli [2]) | Ratio (Klebsiella pneumoniae [6]) | Ratio (Klebsiella pneumoniae [10]) | Ratio (Klebsiella pneumoniae [14]) | Ratio (Escherichia coli [21])
4: Ratio (Klebsiella pneumoniae [1]) | Ratio (Klebsiella pneumoniae [3]) | Ratio (Escherichia coli [9]) | Ratio (Escherichia coli [16]) | Ratio (Escherichia coli [17]) | Ratio (Klebsiella pneumoniae [19]) | Ratio (Klebsiella pneumoniae [20]) | Ratio (Klebsiella pneumoniae [22])
16 µg/mL: MIC (Klebsiella pneumoniae [11])

C[C@@H](O)[C@H]1C(=O)N2C(C(=O)O)=C(S[C@@H]3CN[C@H](CNS(N)(=O)=O)C3)[C@H](C)[C@H]12 [DORIPENEM]
8: Ratio (Escherichia coli [5])
2 µg/mL: MIC (Pseudomonas aeruginosa [24]) | MIC (Pseudomonas aeruginosa [26]) | MIC (Acinetobacter baumannii [30]) | MIC (Acinetobacter baumannii [33]) | MIC (Acinetobacter baumannii [40])
64 µg/mL: MPC (Acinetobacter baumannii [35]) | MPC (Acinetobacter baumannii [46])
0.03 µg/mL: MIC (Escherichia coli [7]) | MIC (Escherichia coli [18])
16: Ratio (Klebsiella pneumoniae [15])
8 µg/mL: MIC (Pseudomonas aeruginosa [32]) | MIC (Acinetobacter baumannii [42])
1 µg/mL: MIC (Pseudomonas aeruginosa [29]) | MIC (Acinetobacter baumannii [38]) | MIC (Pseudomonas aeruginosa [43])
0.25 µg/mL: MIC (Pseudomonas aeruginosa [31]) | MIC (Pseudomonas aeruginosa [48])
>16: Ratio (Klebsiella pneumoniae [3]) | Ratio (Klebsiella pneumoniae [6]) | Ratio (Klebsiella pneumoniae [13]) | Ratio (Klebsiella pneumoniae [20]) | Ratio (Klebsiella pneumoniae [23])
4: Ratio (Escherichia coli [4]) | Ratio (Escherichia coli [8]) | Ratio (Escherichia coli [12]) | Ratio (Escherichia coli [16])
0.125 µg/mL: MIC (Pseudomonas aeruginosa [27])
2: Ratio (Klebsiella pneumoniae [1]) | Ratio (Escherichia coli [2]) | Ratio (Escherichia coli [9]) | Ratio (Klebsiella pneumoniae [10]) | Ratio (Klebsiella pneumoniae [14]) | Ratio (Escherichia coli [17]) | Ratio (Klebsiella pneumoniae [19]) | Ratio (Escherichia coli [21]) | Ratio (Klebsiella pneumoniae [22])
0.5 µg/mL: MIC (Acinetobacter baumannii [25]) | MIC (Pseudomonas aeruginosa [34]) | MIC (Acinetobacter baumannii [37]) | MIC (Pseudomonas aeruginosa [44]) | MIC (Pseudomonas aeruginosa [45]) | MIC (Acinetobacter baumannii [47])
4 µg/mL: MIC (Acinetobacter baumannii [28]) | MIC (Acinetobacter baumannii [36]) | MIC (Klebsiella pneumoniae [11]) | MIC (Acinetobacter baumannii [39]) | MIC (Acinetobacter baumannii [41])

C[C@@H](O)[C@H]1C(=O)N2C(C(=O)O)=C(SCCNC=N)C[C@H]12 [IMIPENEM ANHYDROUS]
64 µg/mL: MPC (Acinetobacter baumannii [35])
32 µg/mL: MPC (Acinetobacter baumannii [46])

C[C@@H](O)[C@H]1C(=O)N2C(C(=O)O)=C(S[C@@H]3CN[C@H](C(=O)N(C)C)C3)[C@H](C)[C@H]12 [MEROPENEM]
2 µg/mL: MIC (Pseudomonas aeruginosa [26]) | MIC (Pseudomonas aeruginosa [29]) | MIC (Acinetobacter baumannii [33]) | MIC (Acinetobacter baumannii [38]) | MIC (Acinetobacter baumannii [41]) | MIC (Pseudomonas aeruginosa [44])
4 µg/mL: MIC (Pseudomonas aeruginosa [24]) | MIC (Acinetobacter baumannii [40])
8 µg/mL: MIC (Acinetobacter baumannii [28]) | MIC (Pseudomonas aeruginosa [32]) | MIC (Acinetobacter baumannii [36]) | MIC (Acinetobacter baumannii [39]) | MIC (Acinetobacter baumannii [42])
0.5 µg/mL: MIC (Pseudomonas aeruginosa [31]) | MIC (Pseudomonas aeruginosa [34]) | MIC (Pseudomonas aeruginosa [48])
1 µg/mL: MIC (Acinetobacter baumannii [25]) | MIC (Acinetobacter baumannii [30]) | MIC (Acinetobacter baumannii [37]) | MIC (Pseudomonas aeruginosa [43]) | MIC (Pseudomonas aeruginosa [45]) | MIC (Acinetobacter baumannii [47])
0.25 µg/mL: MIC (Pseudomonas aeruginosa [27])
